We go through 22 compounds from PubChem BioAssay (NCI).

What all share (assay): NCI anticancer screen, dose series, 48 h
In test [1] the test system is U251 CNS.
The subject of test [2] is K-562 leukemia.
For test [3], the system named is SNB-75 CNS.
In test [4] the test system is OVCAR-8 ovarian.
For test [5], the system named is SF-539 CNS.
For test [6], the system named is NCI-H23 lung.
In test [7] the test system is HL-60(TB) leukemia.
For test [8], the system named is HT29 colon.
For test [9], the system named is NCI-H226 lung.

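In this assay, cells in 96-well plates receive the compound at five concentrations for 48 hours. Endpoints are linearly interpolated between the surrounding concentrations. At the GI50, growth is halved. TGI is the concentration that stops growth completely.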

For the compound `COc1ccc(-c2oc3cc(O)c(OC)c(O)c3c(=O)c2OC2OC(CO)C(O)C(O)C2O)cc1` (stereo not given), the TGI in test [1], in [2], in test [3], in test [4], in [5] and in test [6] was more than 100 µM throughout. The TGI in [7] and in test [8] was more than 100 µM each time.

Consider `S=c1[nH]nc(COc2ccc(Cl)cc2)o1`, for which the TGI in test [1], in [2], in test [3], in [4], in test [5] and in [6] was more than 100 µM throughout. The TGI in [7], in test [8] and in [9] was more than 100 µM in each case.

With `CCCCN(CCCC)C(=O)C(=O)CC(=O)c1ccc(Br)cc1`, the TGI in [1], in test [2], in test [4], in test [5], in [6] and in test [7] was more than 100 µM in each case. Further, the TGI in test [8] and in [9] was more than 100 µM throughout.

For `Cc1cc(Br)cc(C)c1NC(=O)C(=O)CC(=O)c1sc(-n2nc(-c3ccccc3)cc2-c2ccccc2)nc1C`, the TGI in test [1], in test [2], in [3], in test [4], in test [6] and in [7] was more than 100 µM in each case. Moreover, the TGI in test [8] and in test [9] was more than 100 µM each time.

For `N[C@H]1C2C3CC4C5CC(C42)C1(c1ccccc1)C53` (stereo not given in full), the TGI in test [1], in test [2], in test [3], in [4], in test [5] and in [6] was more than 100 µM in each case. The TGI in test [7], in [8] and in test [9] was more than 100 µM throughout.

With `COC1C=C(Nc2cccc(Cl)c2)C(=O)C1` (stereo not given), the TGI in test [1], in test [2], in [3], in test [4], in [5] and in test [6] was more than 100 µM throughout. Besides, the TGI in test [7], in [8] and in [9] was more than 100 µM each time.

For `CC1=C(C(=O)Nc2ccccc2)C(c2ccc3c(c2)OCO3)C(C(=O)Nc2ccccc2)=C(C)N1`, the TGI in test [2] was 66 µM; in test [4], more than 100 µM; in test [5], 76 µM; in [6], more than 100 µM; in [7] it was 42.4 µM; in [8], more than 100 µM. In [9], the TGI was more than 100 µM.

Take `C/C(=N\NC(=S)Nc1ccc(C(=O)O)cc1)c1ccccn1`: the TGI in test [1] was 58.3 µM; in test [2] it was more than 100 µM; in [3], 40 µM; in test [4], 45.5 µM; in test [5], 40.3 µM; in [6] it was 98.6 µM. The TGI is 52.5 µM in [7], more than 100 µM in test [8] and 34.2 µM in [9].

Regarding `CCOP(=O)(OCC)C1C(=O)O[C@H]2CCCC[C@@H]12` (stereo not given in full), the TGI in test [1], in test [2], in test [3], in test [4], in [5] and in test [6] was more than 100 µM in each case. For the same compound, the TGI in test [8] is more than 100 µM.

With `Cc1cc(C)nc(NS(=O)(=O)c2ccc(Nc3c4ccccc4nc4c(C(=O)Nc5ccc(S(N)(=O)=O)cc5)cccc34)cc2)n1`, the TGI is more than 100 µM in test [1]; more than 100 µM in test [2]; 88.4 µM in test [3]; more than 100 µM in test [4]; more than 100 µM in [5]; more than 100 µM in test [6]. In test [8], this compound came in with a TGI of more than 100 µM.

As to `O/N=C1/C(=C/c2ccc(F)cc2)CCCC1C(NO)c1ccc(F)cc1` (stereo not given), the TGI was more than 100 µM in test [1]; more than 100 µM in test [2]; more than 100 µM in [3]; more than 100 µM in [4]; more than 100 µM in test [5]; 51.7 µM in [6]. For the same compound, the figures for the TGI in test [7] and in test [8] were 49.1 µM and 45.2 µM, respectively.

As to `CC(C)=CC(=O)CC(=O)C(=O)Nc1ccc(C)c(C)c1`, the TGI in [1], in test [2], in test [3], in test [5], in test [6] and in test [7] was more than 100 µM in each case. The TGI in [8] and in [9] was more than 100 µM throughout.

`CCOC(=O)Cc1c(Cc2[nH]c(C(=O)OCc3ccccc3)c(CC(=O)OCC)c2CC(=O)OCC)[nH]c(C(=O)OCc2ccccc2)c1CC(=O)OCC`: the TGI in [1], in test [2], in test [3], in [4], in test [5] and in test [7] was more than 100 µM each time. Also, the TGI in test [8] was more than 100 µM.

`N#Cc1ccccc1NC(=O)C(=O)C(C(=O)c1ccccc1-c1ccccc1)C1OC(=O)c2ccccc21` (stereo not given): the TGI was 25.6 µM in [1]; more than 100 µM in test [2]; 29.9 µM in test [3]; more than 100 µM in [4]; 22.7 µM in test [5]; 26.1 µM in test [6]. The TGI in test [7] was 50.2 µM; in [8], 97.3 µM.

Turning to `Cn1ncc2cc3c(Nc4ccc(Cl)cc4)cccc3nc21`, the TGI in [2] was more than 100 µM; in test [3] it was more than 100 µM; in [4], 76.1 µM; in test [6], more than 100 µM; in test [7], 43.4 µM.

On to `CC(Cl)(/C=C/Cl)C(Cl)/C=C/C(Cl)(CCl)CBr` (stereo not given), for which the TGI in test [1] came to 8.37 µM; in test [2], 14.2 µM; in test [3] it was 14.5 µM; in [4], 13.2 µM; in test [6] it was 7.16 µM; in [7], 5.32 µM. Besides, the TGI turned out to be 4.66 µM in test [8] and 22.9 µM in [9].

`O=C1C2=C(c3ccccc31)C(c1ccc(Cl)cc1)N1C(=O)CCSC1=N2` (stereo not given): the TGI in [1], in test [2], in [3], in test [5], in test [6] and in test [7] was more than 100 µM throughout. Moreover, the TGI in test [8] and in test [9] was more than 100 µM throughout.

As for `CC(=O)[CH-]C(=O)c1ccccc1.CC(=O)[CH-]C(=O)c1ccccc1.CCN(CC)CC[O-].CCN(CC)CC[O-].Cl.[Ti+4]`, the GI50 was 25.2 µM in [1]; 37.8 µM in test [2]; 21.9 µM in test [3]; 38.8 µM in [4]; 27.2 µM in [5]; 19.6 µM in test [7]. Moreover, the GI50 in test [8] is 24 µM; in [9], 23 µM. Also, the TGI is more than 100 µM in [1]; more than 100 µM in [2]; 47.3 µM in test [3]; more than 100 µM in test [4]; 76.5 µM in test [5]; 61.2 µM in [7]. The TGI in test [8] was determined as 59.6 µM; in [9] it was 62.4 µM.

On to `CC12OC(C(=O)C13CC3)C1C(=O)c3ccccc3C(=O)C12` (stereo not given), for which the GI50 in [2] is 36.8 µM; in [3] it was 77.5 µM; in [4], 20.3 µM; in test [5], 24.2 µM; in test [6], 29.5 µM; in test [7], 26.8 µM. The GI50 in test [8] was 48.7 µM. Further, the TGI was more than 100 µM in test [2]; more than 100 µM in test [3]; 48.4 µM in test [4]; 54.6 µM in test [5]; more than 100 µM in test [6]; 81.6 µM in [7]. The compound further registered a TGI in test [8] of more than 100 µM.

As for `COc1c(OC(C)=O)ccc(/C=C2\N=C(C)OC2=O)c1[N+](=O)[O-]`, the TGI in test [1], in test [2], in [3], in test [4], in test [5] and in test [7] was more than 100 µM each time. In test [8], this compound gave a TGI of more than 100 µM.

For the compound `CC(=O)Oc1c(C)n(CCCl)ccc1=O`, the TGI in test [1], in test [2], in test [3], in [4], in test [7] and in test [8] was more than 100 µM in each case. Also, in test [9], the TGI is more than 100 µM.

Regarding `Cn1nc(-c2ccccc2NC(=O)C(F)(F)F)c(=O)n(C)c1=S`, the TGI in test [1] was more than 100 µM; in test [2] it was 66.8 µM; in [3], 59.4 µM; in test [4], 67.7 µM; in test [5], 83.9 µM; in test [6], 80.8 µM. Besides, the TGI in [8] is 53.8 µM; in test [9], more than 100 µM.
